According to US20240368088A1, “EP4 ANTAGONIST COMPOUND AS WELL AS SALT, POLYMORPH AND USE THEREOF” (Wuhan Humanwell Innovative Drug Research and Development …, priority 2021, published 2024):
Values after ≈ are worked out from the molar mass of the structure shown. Values belong to the compound of their own block, whether it stands above or below them.

Key:
[1] = Crystal form conversion on drying at room temperature; assay type: physicochemical
Experimental: The free acid crystal form A was dissolved in MIBK (methyl isobutyl ketone), and then the mixture was subjected to gas-liquid diffusion in an n-pentane atmosphere to obtain free acid crystal form B (XRPD pattern thereof shown in FIG. 5).

[2] = Dynamic solubility experiment at 37° C. in water, SGF, FaSSIF and FeSSIF; details: for solubility at 1 h / solubility at 2 h / solubility at 4 h / solubility at 24 h: 37 °C, thermodynamic from solid; for Crystal form change: XRPD of centrifuged solid; for pH: pH value of filtrate;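 for all read-outs here: at each sampling time, filtrate assayed by HPLC for concentration and for pH, centrifuged solid checked by XRPD, media SGF at pH 1.8, FaSSIF 6.5, FeSSIF 5.0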
Experimental: In the test, the purity, dynamic solubility and stability are tested by an Agilent 1260 high-performance liquid chromatograph.
The solid at a feeding concentration of 10 mg/mL (40 mg of solid in 4 mL of solvent, calculated as free acid) was rotationally mixed at 37° C., and the solubility of each sample in four systems of water, SGF, FaSSIF, and FeSSIF was determined at different time points (1 h, 2 h, 4 h, and 24 h). After sampling at each time point, the sample was centrifuged (at 10000 rpm) and filtered (through a 0.45 μm PTFE filter head), the filtrate was determined for HPLC concentration and pH value, and the centrifuged solid samples were tested for XRPD.
200.3 mg of NaCl and 105.0 mg of Triton X-100 were weighed out and added to a 50-mL volumetric flask, purified water was added, and the mixture was completely dissolved. 136 μL of concentrated hydrochloric acid (12 M) was added, and the pH was adjusted to 1.8 with 1 M hydrochloric acid or 1 M NaOH solution. Purified water was added, and the mixed solution was brought to volume.
0.34 g of anhydrous NaH2PO4, 0.44 g of NaOH, and 0.62 g of NaCl were weighed out and added to a 50-mL volumetric flask. Purified water was added, the mixture was completely dissolved, and the pH was adjusted to 6.5 with 1 M hydrochloric acid or 1 M NaOH solution. Purified water was added, and the mixed solution was brought to volume. 0.11 g of SIF powder was then weighed out, and the mixed solution was completely dissolved.
0.82 mL of glacial acetic acid, 0.40 g of NaOH, and 1.19 g of NaCl were added to a 50-mL volumetric flask. About 48 mL of purified water was added, the mixture was completely dissolved, and the pH was adjusted to 5.0 with 1 M hydrochloric acid or 1 M NaOH solution. Purified water was added, and the mixed solution was brought to volume. 0.56 g of SIF powder was then weighed out, and the mixed solution was completely dissolved.

[3] = Hygroscopicity evaluation by dynamic vapor sorption (DVS); assay type: physicochemical
Experimental: Dynamic vapor sorption (DVS) curves are acquired on a DVS IntrInsic in Surface Measurement Systems (SMS). The relative humidity at 25° C. is corrected with the deliquescence points of LiCI, Mg (NO3)2, and KCI.
Starting at 0% RH, the test acquired the percentage change in mass of the sample when humidity changed (0% RH to 95% RH to 0% RH) at a constant temperature of 25° C.

[4] = Solid state stability (XRPD and HPLC after uncovered storage); details: for Relative to starting (%): HPLC purity; for Purity (area %): HPLC
Experimental: XRPD patterns are acquired on an X-ray powder diffraction analyzer manufactured by PANalytacal, and the scanning parameters are shown in Table A-1 below.
The free acid crystal form A and the crystal form A of the tromethamine salt were left to stand uncovered for 1/4 weeks at 25° C./60% RH and 40° C./75% RH, respectively, and then the physical and chemical stability of the samples was tested by XRPD and HPLC.

[5] = SGF, pH 1.8, simulated gastric fluid
[6] = 25° C./60% RH/uncovered, 1 week
[7] = 25° C./60% RH/uncovered, 4 weeks
[8] = 40° C./75% RH/uncovered, 1 week
[9] = 40° C./75% RH/uncovered, 4 weeks

SMILES: C[C@H](NC(=O)c1c(C(F)F)nn(C)c1Oc1cccc(C(C)(F)F)c1)c1ccc(C(=O)O)cc1 [free acid crystal form B, (S)-4-(1-(5-(3-(1,1-difluoroethyl)phenoxy)-3-(difluoromethyl)-1-methyl-1H-pyrazole-4-carboxamide)ethyl)benzoic acid]
crystal form after being dried at room temperature [1]: converted into the free acid crystal form A

solubility at 1 h ([2]; FaSSIF, pH 6.5, fassif): 1960 µg/mL (≈ 4090 µM)
solubility at 2 h ([2]; FaSSIF, pH 6.5, fassif): 1830 µg/mL (≈ 3820 µM)
solubility at 4 h ([2]; FaSSIF, pH 6.5, fassif): 1860 µg/mL (≈ 3880 µM)
solubility at 24 h ([2]; FaSSIF, pH 6.5, fassif): 1590 µg/mL (≈ 3320 µM)
solubility at 1 h ([2]; FeSSIF, pH 5, fessif): 210 µg/mL (≈ 438 µM)
solubility at 2 h ([2]; FeSSIF, pH 5, fessif): 220 µg/mL (≈ 459 µM)
solubility at 4 h ([2]; FeSSIF, pH 5, fessif): 220 µg/mL (≈ 459 µM)
solubility at 24 h ([2]; FeSSIF, pH 5, fessif): 210 µg/mL (≈ 438 µM)
solubility at 1 h [2, 5]: 40 µg/mL (≈ 83.4 µM)
solubility at 2 h [2, 5]: 40 µg/mL (≈ 83.4 µM)
solubility at 4 h [2, 5]: 50 µg/mL (≈ 104 µM)
solubility at 24 h [2, 5]: 40 µg/mL (≈ 83.4 µM)
Crystal form change ([2]; FaSSIF, 37° C., 1 h): No
Crystal form change ([2]; FaSSIF, 37° C., 2 h): No
Crystal form change ([2]; FaSSIF, 37° C., 4 h): No
Crystal form change ([2]; FaSSIF, 37° C., 24 h): No
Crystal form change ([2]; FeSSIF, 37° C., 1 h, Yes^a: converted to the free acid crystal form A): No
Crystal form change ([2]; FeSSIF, 37° C., 2 h, Yes^a: converted to the free acid crystal form A): No
Crystal form change ([2]; FeSSIF, 37° C., 4 h, Yes^a: converted to the free acid crystal form A): No
Crystal form change ([2]; FeSSIF, 37° C., 24 h, Yes^a: converted to the free acid crystal form A): No
Crystal form change ([2]; H2O, 37° C., 1 h): No
Crystal form change ([2]; H2O, 37° C., 2 h): No
Crystal form change ([2]; H2O, 37° C., 4 h): No
Crystal form change ([2]; H2O, 37° C., 24 h): No
Crystal form change ([2]; SGF, 37° C., 1 h, Yes^a: converted to the free acid crystal form A): No
Crystal form change ([2]; SGF, 37° C., 2 h, Yes^a: converted to the free acid crystal form A): No
Crystal form change ([2]; SGF, 37° C., 4 h, Yes^a: converted to the free acid crystal form A): No
Crystal form change ([2]; SGF, 37° C., 24 h, Yes^a: converted to the free acid crystal form A): No
pH ([2]; FaSSIF, 37° C., 1 h): 6.1
pH ([2]; FaSSIF, 37° C., 2 h): 6.1
pH ([2]; FaSSIF, 37° C., 4 h): 6.1
pH ([2]; FaSSIF, 37° C., 24 h): 6.1
pH ([2]; FeSSIF, 37° C., 1 h): 4.9
pH ([2]; FeSSIF, 37° C., 2 h): 4.9
pH ([2]; FeSSIF, 37° C., 4 h): 4.9
pH ([2]; FeSSIF, 37° C., 24 h): 5.0
pH ([2]; H2O, 37° C., 1 h): 8.3
pH ([2]; H2O, 37° C., 2 h): 8.4
pH ([2]; H2O, 37° C., 4 h): 8.3
pH ([2]; H2O, 37° C., 24 h): 4.8
pH ([2]; SGF, 37° C., 1 h): 1.8
pH ([2]; SGF, 37° C., 2 h): 1.8
pH ([2]; SGF, 37° C., 4 h): 1.8
pH ([2]; SGF, 37° C., 24 h): 1.8
solubility at 1 h ([2]; water): 80 µg/mL (≈ 167 µM)
solubility at 2 h ([2]; water): 80 µg/mL (≈ 167 µM)
solubility at 4 h ([2]; water): 90 µg/mL (≈ 188 µM)
solubility at 24 h ([2]; water): 130 µg/mL (≈ 271 µM)
crystal form after the vehicle solubility tests ([2]; water, SGF, FaSSIF, FeSSIF, 37° C., XRPD): unchanged
hygroscopicity (in words) ([3]; DVS, 25° C./80% RH): almost no hygroscopicity
vapor sorption ([3]; DVS, 25° C./80% RH): 0.07%
crystal form after DVS test ([3]; XRPD before and after DVS, 0% RH to 95% RH to 0% RH, 25° C.): unchanged
hygroscopicity (summary statement) ([3]; beneficial effects summary): relatively low hygroscopicity
physicochemical stability (summary statement) [4]: good physicochemical stability
HPLC purity change after placement (in words) ([4]; 25° C./60% RH and 40° C./75% RH, uncovered, 1/4 weeks): not significantly changed
crystal form change after placement (in words) ([4]; 25° C./60% RH and 40° C./75% RH, uncovered, 1/4 weeks, XRPD): not changed
Relative to starting (%) [4, 6]: 99.81%
Relative to starting (%) [4, 7]: 99.83%
Relative to starting (%) [4, 8]: 99.79%
Relative to starting (%) [4, 9]: 99.77%
Purity (area %) [4, 6]: 94.14 area %
Purity (area %) [4, 7]: 94.19 area %
Purity (area %) [4, 8]: 94.15 area %
Purity (area %) [4, 9]: 94.13 area %
Purity (area %) ([4]; Starting): 94.35 area %
SMILES: C[C@H](NC(=O)c1c(C(F)F)nn(C)c1Oc1cccc(C(C)(F)F)c1)c1ccc(C(=O)O)cc1 [Free acid crystal form A, (S)-4-(1-(5-(3-(1,1-difluoroethyl)phenoxy)-3-(difluoromethyl)-1-methyl-1H-pyrazole-4-carboxamide)ethyl)benzoic acid]
